Data published in patent US9364488B2, “Myelin regeneration with androgens” (priority 2011, dated 2016).
“Also recorded” adds a separate entry of the source.

Key:
[1] = target: estrogen receptor beta (ERβ) (Homo sapiens, UniProt Q92731); conditions: reference 16; cited from earlier work
[2] = system: corpus callosum axons of cuprizone-intoxicated mice; experiment: Remyelination of corpus callosum after demyelination induced by cuprizone intoxication; type: in vivo; conditions: for remyelination of corpus callosum (myelin basic protein staining, oligodendrocytes): 6 weeks of treatment with subcutaneous silastic implants after 12 weeks of cuprizone intoxication; for promyelinating effect in vivo after demyelination induced by cuprizone intoxication (summary statement): male and female animals; for remyelinating effect in testicular feminized mice: mice devoid of functional androgen receptors due to a gene mutation
Excerpt: In Figures b, d and f, are shown representative images of immunostaining of mouse corpus callosum with anti-MBP antibody.

[3] = mouse, in vivo, sc
[4] = MENT level in plasma of castrated male mice with subcutaneous silastic implants (radioimmunoassay); type: in vivo; conditions: mean of 8 samples, SD 0.87
Excerpt: In additional experiments, the level of MENT which was induced in the plasma of castrated male mice based on subcutaneous silastic implants, as determined by radioimmunoassay, and which included a myelin response, was as follows: […]

[5] = system: mouse spinal cord
[6] = system: oligodendrocyte progenitors; experiment: Proliferation and maturation of oligodendrocyte progenitors
[7] = system: activated microglial cells in corpus callosum; experiment: Microglial responses and astrogliosis after cuprizone intoxication; conditions: 9 weeks of treatment after 12 weeks of cuprizone intoxication, castrated males
[8] = system: organotypic cultures of cerebellar slices

Sequence of estrogen receptor beta (ERβ) (Q92731 whole entry, species assumed): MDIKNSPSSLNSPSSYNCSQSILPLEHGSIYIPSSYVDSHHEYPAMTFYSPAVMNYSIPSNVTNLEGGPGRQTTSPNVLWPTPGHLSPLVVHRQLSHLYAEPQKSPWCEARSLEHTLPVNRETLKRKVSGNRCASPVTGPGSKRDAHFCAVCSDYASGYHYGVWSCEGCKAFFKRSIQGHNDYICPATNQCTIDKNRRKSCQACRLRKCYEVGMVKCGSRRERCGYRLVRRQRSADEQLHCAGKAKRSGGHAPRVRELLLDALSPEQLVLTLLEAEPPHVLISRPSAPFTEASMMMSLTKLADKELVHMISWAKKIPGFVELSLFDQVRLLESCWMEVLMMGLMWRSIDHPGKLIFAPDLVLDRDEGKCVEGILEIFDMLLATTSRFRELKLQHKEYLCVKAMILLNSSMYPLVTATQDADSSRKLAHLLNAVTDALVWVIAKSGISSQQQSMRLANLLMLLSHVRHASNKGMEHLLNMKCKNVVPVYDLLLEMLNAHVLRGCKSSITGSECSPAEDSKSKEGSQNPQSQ

## C[C@]12CC[C@H](O)C[C@@H]1CC[C@@H]1[C@@H]2CC[C@]2(C)[C@@H](O)CC[C@@H]12 [3βAdiol, 5α-androstane-3β,17β-diol]
[1]
  binding to estrogen receptor beta (ERβ): strongly binds

## C[C@]12CCC(=O)C[C@@H]1CC[C@@H]1[C@@H]2CC[C@]2(C)[C@@H](O)CC[C@@H]12 [5α-dihydrotestosterone]
[2]
  remyelination of corpus callosum (myelin basic protein staining, oligodendrocytes): promotion of remyelination
  promyelinating effect in vivo after demyelination induced by cuprizone intoxication (summary statement): mimicked by 5α-dihydrotestosterone

## C[C@]12CC[C@@H]3c4ccc(O)cc4CC[C@H]3[C@@H]1CC[C@@H]2O [Estradiol, estradiol]
[3]; male
  Brain Level: 0.36 ± 0.04 ng/g
  PLASMA LEVEL: 0.39 ± 0.07 ng/mL
[3]
  levels produced in plasma and brain tissue by the implants: high physiological levels

## C[C@@H]1CC2=CC(=O)CC[C@@H]2[C@H]2CC[C@]3(C)[C@@H](O)CC[C@H]3[C@@H]21 [MENT]
[4]
  mean MENT plasma level: 2.12 ng/mL
[2]
  remyelination of corpus callosum (myelin basic protein staining, oligodendrocytes): promotion of remyelination
  promyelinating effect in vivo after demyelination induced by cuprizone intoxication (summary statement): also observed
[5]
  remyelination after lysolecithin-induced demyelination: can be mimicked by MENT

## C[C@]12CC[C@H]3[C@@H](CCC4=CC(=O)CC[C@@]43C)[C@@H]1CC[C@@H]2O [Testosterone, testosterone]
[2]
  remyelination of corpus callosum (myelin basic protein staining, oligodendrocytes): Strong remyelination
  promyelinating effect in vivo after demyelination induced by cuprizone intoxication (summary statement): very strong promyelinating effect
  remyelinating effect in testicular feminized mice: not observed
[2]; aromatase knockout mice, cuprizone model
  remyelinating effect in aromatase knockout mice: loses its efficiency; also recorded: strongly reduced; also recorded: diminished
[2]; listed as testosterone
  remyelinating effect in testicular feminized mice: eliminated
[2]; silastic implants for 3 to 6 weeks after termination of 12 week cuprizone diet
  replenishment of corpus callosum fibers by oligodendrocytes: replenished by oligodendrocytes forming new myelin sheaths
[6]
  proliferation and maturation of oligodendrocyte progenitors: promotes the proliferation and maturation
[7]
  number of activated microglial cells: return to normal levels; also recorded: significantly decreased
[8]
  promyelinating effect in vitro: very strong promyelinating effect
